In assay [1] the test system is alcoholic liver disease rats. The assay can be described thus: Alcoholic liver disease and cirrhosis induced by 5% ethanol diet. It counts as in vivo, Rattus norvegicus, Wistar. The note with it: 5% ethanol diet rats, daily over three months. The procedure:
(§1) Fifty male heterozygous rats, 45-days-old, from the Rattus norvegicus species and Wistar lineage are kept in polypropylene cages, in groups of five animals, under a 12 h-clear/dark cycle and under controlled temperature conditions. The induction of alcoholic liver disease and cirrhosis is carried out through a diet containing 5% ethanol for 6 weeks. […] During the study period, the animals are weighed on a weekly basis and the drugs dose is readjusted as necessary. On the first day of the study, besides determining the animals' weight, their blood is collected through retro-orbital plexus puncture for biochemical analysis: alanine-aminotransferase (ALT) and aspartate-aminotransferase (AST) (colorimetric test, using the Labtest kit). One day after concluding the induction period and compound administration (90 days), the animals are sacrificed by decapitation. Once more, each animal's blood is collected for biochemical analysis. Then, laparotomy with total hepatectomy and liver preparation are carried out for lipoperoxidation (LPO) and histological analysis. Liver tissue samples are analyzed using the thiobarbituric-acid reactant substance (TBARS) measurement according to known methods (See Lowry et al. Protein measurement with the folin phenol reagent. J Biol Chem. 1951; 193:265-75) and the results are expressed in nmol of malondialdehyde/mg of protein. Slides with liver fragments are also dyed with hematoxilin-eosine and picrosirius, in order to evaluate the fibrosis level, and with Perls to evaluate the presence of iron stores, having been examined by an only pathologist blinded to the animals' data.

In assay [2] the test system is NASH (MCD diet) rats. Put plainly: NASH induced by methionine and choline deficient diet. It counts as in vivo, Rattus norvegicus, Wistar. The settings on record: daily over three months. How it is done:
as §1, with “NASH” for “alcoholic liver disease and cirrhosis”, “deficient in methionine and choline (MCD) according to known procedures (See Rogers A E, Newberne P M. Alcoholic and nutritional fatty liver and cirrhosis. Am J Pathol. 1973; 73:817-20).” for “containing 5% ethanol for 6 weeks.”, “days),” for “days), the”, “data. The minimum histological criterion for NASH diagnosis is the presence of hepatocellular ballooning-related steatosis, involving zone 3 and lobular inflammatory infiltrate. Mallory corpuscles and sinusoidal fibrosis, involving zone 3 might be present or not. The graduation of both necroinflammatory and fibrosis activity is carried out according to known classifications (See Brunt E M, Janney C G, Di Bisceglie A M, Neuschwander-Tetri B A, Bacon B R. Nonalcoholic steatohepatitis: a proposal for grading and staging the histological lesions. Am J Gastroenterol. 1999; 94:2467-74).” for “data.”

Data on 1 compound can be found in patent US12156860B2, “Disorders implicating PUFA oxidation” (BioJiva LLC, priority 2011, dated 2024).

For `[2H]C([2H])(/C=C\CCCCC)/C=C\CCCCCCCC(=O)O` [D2-LA, 11,11-Dideutero-cis,cis-9,12-Octadecadienoic acid], in assay [1], the “amount of MDA in liver samples (TBARS)” value is given as “reduce the amount of MDA found in liver samples” and the “histological signs of fatty liver disease” value is “reverse the histological signs of fatty liver disease”. In assay [2], the “amount of MDA in liver samples (TBARS)” value was “reduce the amount of MDA found in liver samples” and the “histological signs of NASH” value was “reverse the histological signs of NASH”.
